Assay results as given in ChEMBL document CHEMBL1149016, “Plant anticancer agents, XLII. Cytotoxic constituents from Wikstroemia elliptica” (1986).
≈ marks a conversion by molar mass, not a printed value.

Test system: P388
Experiment: Cytotoxicity against mouse P388 cells
Assay type: functional
Conditions: read-out: ED50 (the source's name)

Q: Which EC50 does the source give for COc1cc(C[C@@H]2CO[C@@H](c3cc(OC)c(O)c(OC)c3)[C@@H]2CO)ccc1O (racemic) here?
A: 0.33 µg/mL (≈ 0.845 µM)

Q: COc1cc(C[C@H]2CO[C@H](c3ccc(O)c(OC)c3)[C@H]2CO)ccc1O (racemic) [LARICIRESINOL] was tested. Which EC50 did it give?
A: 0.38 µg/mL (≈ 1.05 µM)

Q: COc1cc([C@H]2OC[C@H]3[C@@H]2CO[C@@H]3c2cc(OC)c(O)c(OC)c2)cc(OC)c1O (racemic) [SYRINGARESINOL] was tested. Which EC50 did it give?
A: 0.56 µg/mL (≈ 1.34 µM)

Q: How did the EC50 turn out when COc1cc2cc(Oc3ccc4ccc(=O)oc4c3)c(=O)oc2cc1O [DAPHNORETIN] was run?
A: 3.4 µg/mL (≈ 9.65 µM)

Q: With O=c1ccc2ccc(O)cc2o1 [UMBELLIFERONE] as the molecule, how does the EC50 read?
A: 3.1 µg/mL (≈ 19.1 µM)
